From patent publication US20250084056A1, “SUBSTITUTED OXOISOINDOLINYL PIPERIDINE-2,6-DIONE COMPOUNDS” (BRISTOL-MYERS SQUIBB COMPANY, priority 2023, published 2025)

What was measured:
Format in all cases: cell-based
[1] = system: Phospho-Rb (Ser807/811); assay: Phospho-Retinoblastoma (pRB) Cellular Assay; details: Homo sapiens, OVCAR-3, NIH OVCAR3 cells, 24 hours; for IC50: concentration giving 50% response; for Emax: maximum response, reference compound at 10 μM = 100%, read-out: pRB Ymax
Outline: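 Phospho-Rb (Ser807/811) kit read-out on EnVision after lysis (≥4 h, room temperature, dark) of OVCAR3 cells exposed to compound dilutions for 24 h. IC50 and maximum response Ymax are relative to a 10 μM reference compound defining 100%.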

[2] = biological target: GSPT1 (Homo sapiens, UniProt P15170+Q96SW2); assay: GSPT1 Cellular Degradation Assay (DF15-GSPT1-ePL); set-up: expressed in transfected cells; details: DF15-GSPT1-ePL cells, 20 hours
GSPT1, sequence (P15170 whole entry, the tested form may be a part): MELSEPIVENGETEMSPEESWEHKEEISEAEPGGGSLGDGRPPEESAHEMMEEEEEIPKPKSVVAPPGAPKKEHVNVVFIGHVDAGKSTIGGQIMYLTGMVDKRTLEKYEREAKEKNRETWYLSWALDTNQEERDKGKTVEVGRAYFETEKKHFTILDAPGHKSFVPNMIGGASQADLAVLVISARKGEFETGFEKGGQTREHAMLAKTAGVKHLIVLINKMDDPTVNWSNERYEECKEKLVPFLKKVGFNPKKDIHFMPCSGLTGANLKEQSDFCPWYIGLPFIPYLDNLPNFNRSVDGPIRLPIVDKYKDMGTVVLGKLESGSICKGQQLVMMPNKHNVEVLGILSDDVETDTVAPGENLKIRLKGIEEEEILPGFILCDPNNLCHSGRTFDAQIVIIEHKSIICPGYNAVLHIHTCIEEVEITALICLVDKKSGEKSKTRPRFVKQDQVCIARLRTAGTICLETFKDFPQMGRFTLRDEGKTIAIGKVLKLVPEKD
GSPT1, sequence (Q96SW2 whole entry, the tested form may be a part): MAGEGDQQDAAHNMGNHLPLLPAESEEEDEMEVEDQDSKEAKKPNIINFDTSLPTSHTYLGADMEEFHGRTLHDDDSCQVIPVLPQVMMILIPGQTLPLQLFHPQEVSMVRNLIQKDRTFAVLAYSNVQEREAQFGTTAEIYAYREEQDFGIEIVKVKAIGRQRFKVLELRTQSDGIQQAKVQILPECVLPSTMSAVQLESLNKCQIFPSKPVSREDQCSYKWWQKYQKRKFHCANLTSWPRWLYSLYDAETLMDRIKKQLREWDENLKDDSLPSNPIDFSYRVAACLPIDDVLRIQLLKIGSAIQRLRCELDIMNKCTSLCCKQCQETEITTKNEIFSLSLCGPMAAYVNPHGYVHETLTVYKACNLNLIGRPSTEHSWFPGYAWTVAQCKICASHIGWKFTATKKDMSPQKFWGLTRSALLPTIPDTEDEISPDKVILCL
GSPT1, sequence (Q16531 whole entry partner, the tested form may be a part): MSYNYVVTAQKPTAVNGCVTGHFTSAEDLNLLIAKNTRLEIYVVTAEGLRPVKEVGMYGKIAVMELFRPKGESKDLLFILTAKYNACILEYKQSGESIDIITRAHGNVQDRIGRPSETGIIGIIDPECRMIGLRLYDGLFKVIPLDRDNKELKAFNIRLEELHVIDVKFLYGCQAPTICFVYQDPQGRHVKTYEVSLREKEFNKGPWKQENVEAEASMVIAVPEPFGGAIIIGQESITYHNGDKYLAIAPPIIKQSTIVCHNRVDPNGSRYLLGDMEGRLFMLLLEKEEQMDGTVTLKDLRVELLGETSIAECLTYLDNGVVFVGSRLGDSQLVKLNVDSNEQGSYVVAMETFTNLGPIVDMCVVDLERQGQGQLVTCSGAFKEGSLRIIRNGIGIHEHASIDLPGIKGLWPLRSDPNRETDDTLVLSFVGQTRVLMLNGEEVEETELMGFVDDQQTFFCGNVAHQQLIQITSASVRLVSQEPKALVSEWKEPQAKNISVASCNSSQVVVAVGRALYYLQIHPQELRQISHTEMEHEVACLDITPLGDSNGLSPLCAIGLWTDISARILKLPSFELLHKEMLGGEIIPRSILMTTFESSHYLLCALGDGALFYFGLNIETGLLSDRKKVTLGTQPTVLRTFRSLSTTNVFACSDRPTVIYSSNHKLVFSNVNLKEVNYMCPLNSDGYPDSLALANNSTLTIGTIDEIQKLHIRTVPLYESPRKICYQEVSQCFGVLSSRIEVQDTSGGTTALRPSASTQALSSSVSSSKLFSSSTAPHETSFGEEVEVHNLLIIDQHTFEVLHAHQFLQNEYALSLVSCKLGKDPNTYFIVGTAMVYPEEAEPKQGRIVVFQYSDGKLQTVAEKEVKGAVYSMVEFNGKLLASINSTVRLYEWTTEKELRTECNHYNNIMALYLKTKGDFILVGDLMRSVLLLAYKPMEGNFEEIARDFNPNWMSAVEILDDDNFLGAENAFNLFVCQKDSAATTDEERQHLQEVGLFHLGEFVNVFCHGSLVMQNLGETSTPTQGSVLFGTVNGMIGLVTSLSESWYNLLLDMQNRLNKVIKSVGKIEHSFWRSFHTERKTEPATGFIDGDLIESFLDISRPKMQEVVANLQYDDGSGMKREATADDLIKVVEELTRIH
Outline: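 DC50 and Dmax were derived from chemiluminescence, with 75% response set by the reference compound at […]. Readout was ePL enzyme-fragment complementation in a DF15 line expressing chimeric GSPT1. Cells were exposed to compound for 20 h at 37 °C in RPMI 1640 with 10% FBS, cooled 30 min, then lysed with substrate for 60 min.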

[3] = biological target: Cyclin E1 (Homo sapiens, UniProt P24864+Q96SW2); assay: Cyclin E1 Cellular Degradation Assay (MSD); set-up: endogenous in cells; host or cells: OVCAR3; details: for DC50 / Dmax: Cyclin E1 cellular degradation; for Dmax: maximum degradation; for Ratio of GSPT1 DC50/Cyclin E1 DC50: selectivity for degradation of Cyclin E1 over GSPT1
Cyclin E1, sequence (P24864 whole entry): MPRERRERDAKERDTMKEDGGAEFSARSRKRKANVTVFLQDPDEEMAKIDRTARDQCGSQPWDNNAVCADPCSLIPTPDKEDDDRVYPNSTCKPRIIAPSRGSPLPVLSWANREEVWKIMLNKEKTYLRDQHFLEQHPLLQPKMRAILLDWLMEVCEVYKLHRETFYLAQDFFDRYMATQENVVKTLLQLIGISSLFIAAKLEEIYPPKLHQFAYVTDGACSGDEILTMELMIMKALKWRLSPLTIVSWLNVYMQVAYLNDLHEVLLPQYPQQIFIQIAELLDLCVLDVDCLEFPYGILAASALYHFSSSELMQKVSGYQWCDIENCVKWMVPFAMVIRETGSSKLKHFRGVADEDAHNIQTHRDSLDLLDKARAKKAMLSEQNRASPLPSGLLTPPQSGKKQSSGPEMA
Cyclin E1, sequence (Q96SW2 whole entry): as the sequence (Q96SW2 whole entry, the tested form may be a part) above
Cyclin E1, sequence (Q16531 whole entry partner): as the sequence (Q16531 whole entry partner, the tested form may be a part) above
Outline: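 Cyclin E1 remaining after 24 h compound exposure of OVCAR3 cells was quantified in lysates by electrochemiluminescent MSD sandwich assay. DC50 (50% response concentration) and Dmax (maximum response) were calculated, with 110% response set by a reference compound at […].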

Row | SMILES | IC50 [1] [nM] | DC50 [2] [nM] | Dmax [2] [%] | DC50 [3] [nM] | Dmax [3] [%] | Ratio of GSPT1 DC50/Cyclin E1 DC50 [3] | Emax [1] [%]
1 | COc1c(COC(=O)Nc2ccc(Oc3cc(F)c(F)cc3Cl)cc2F)ccc2c1C(=O)N(C1CCC(=O)NC1=O)C2 (centres unmarked) [Example 109, [2-(2,6-dioxopiperidin-3-yl)-4-methoxy-3-oxo-2,3-dihydro-1H-isoindol-5-yl]methyl N-[4-(2-chloro-4,5-difluorophenoxy)-2-fluorophenyl]carbamate] | 66 | > 14000 | 42 | 111 | 107 | >127 | 114
2 | COc1c(COC(=O)Nc2ccc(Oc3cc(F)cc(F)c3)cc2F)ccc2c1C(=O)N(C1CCC(=O)NC1=O)C2 (centres unmarked) [Example 24, [2-(2,6-dioxopiperidin-3-yl)-4-methoxy-3-oxo-2,3-dihydro-1H-isoindol-5-yl]methyl N-[4-(3,5-difluorophenoxy)-2-fluorophenyl]carbamate] | 229 | > 14000 | 10 | 39 | 107 | >358 | 105
3 | O=C1CCC(N2Cc3ccc(COC(=O)Nc4ccc(Oc5cccc(F)c5)cc4)c(Oc4ccccc4)c3C2=O)C(=O)N1 (centres unmarked) [Example 64, [2-(2,6-dioxopiperidin-3-yl)-3-oxo-4-phenoxy-2,3-dihydro-1H-isoindol-5-yl]methyl N-[4-(3-fluorophenoxy)phenyl]carbamate] | 83 | > 14000 | 22 | 133 | 109 | >105 | 111
4 | COc1c(COC(=O)Nc2ccc(Oc3ccc(F)c(Cl)c3)cc2C)ccc2c1C(=O)N(C1CCC(=O)NC1=O)C2 (centres unmarked) [Example 83, [2-(2,6-dioxopiperidin-3-yl)-4-methoxy-3-oxo-2,3-dihydro-1H-isoindol-5-yl]methyl N-[4-(3-chloro-4-fluorophenoxy)-2-methylphenyl]carbamate] | 172 | > 14000 | 31 | 136 | 110 | >103 | 117
5 | COc1cc(Oc2ccc(F)cc2C)ccc1NC(=O)OCc1ccc2c(c1OC)C(=O)N(C1CCC(=O)NC1=O)C2 (centres unmarked) [Example 75, [2-(2,6-dioxopiperidin-3-yl)-4-methoxy-3-oxo-2,3-dihydro-1H-isoindol-5-yl]methyl N-[4-(4-fluoro-2-methylphenoxy)-2-methoxyphenyl]carbamate] | 287 | > 14000 | 23 | 328 | 109 | >43 | 120
6 | COc1c(COC(=O)Nc2ccc(Oc3ccc(F)cc3Cl)cc2C)ccc2c1C(=O)N(C1CCC(=O)NC1=O)C2 (centres unmarked) [Example 103, [2-(2,6-dioxopiperidin-3-yl)-4-methoxy-3-oxo-2,3-dihydro-1H-isoindol-5-yl]methyl N-[4-(2-chloro-4-fluorophenoxy)-2-methylphenyl]carbamate] | 86 | > 14000 | 22 | 148 | 107 | >95 | 100
7 | O=C1CCC(N2Cc3ccc(COC(=O)Nc4ccc(Oc5ccccc5Cl)cc4)c(OC4CCC4)c3C2=O)C(=O)N1 (centres unmarked) [Example 127, [4-cyclobutoxy-2-(2,6-dioxopiperidin-3-yl)-3-oxo-2,3-dihydro-1H-isoindol-5-yl]methyl N-[4-(2-chlorophenoxy)phenyl]carbamate] | 48 | > 14000 | 8 | 126 | 105 | >111 | 121

Now from value to compound, other results behind:

Row | IC50 [1] [nM] | DC50 [2] [nM] | Dmax [2] [%] | DC50 [3] [nM] | Dmax [3] [%] | Ratio of GSPT1 DC50/Cyclin E1 DC50 [3] | SMILES | Emax [1] [%]
8 | 73 | > 14000 | 40 | 181 | 115 | >77 | COc1c(COC(=O)Nc2ccc(Oc3ccccc3Cl)cc2)ccc2c1C(=O)N(C1CCC(=O)NC1=O)C2 (centres unmarked) [Example 80, [2-(2,6-dioxopiperidin-3-yl)-4-methoxy-3-oxo-2,3-dihydro-1H-isoindol-5-yl]methyl N-[4-(2-chlorophenoxy)phenyl]carbamate] | 119
9 | 412 | > 14000 | 22 | 157 | 104 | >89 | O=C1CCC(N2Cc3ccc(COC(=O)Nc4ccc(Oc5ccc(F)c(F)c5)cc4)c(OC(F)F)c3C2=O)C(=O)N1 (centres unmarked) [Example 61, [4-(difluoromethoxy)-2-(2,6-dioxopiperidin-3-yl)-3-oxo-2,3-dihydro-1H-isoindol-5-yl]methyl N-[4-(3,4-difluorophenoxy)phenyl]carbamate] | 107
10 | 37 | > 14000 | 19 | 84 | 107 | >166 | O=C1CCC(N2Cc3ccc(COC(=O)Nc4ccc(Oc5ccc(F)c(F)c5)cc4)c(O[C@@H]4CCOC4)c3C2=O)C(=O)N1 (stereo partly drawn) [Example 153, [2-(2,6-dioxopiperidin-3-yl)-3-oxo-4-[(3R)-oxolan-3-yloxy]-2,3-dihydro-1H-isoindol-5-yl]methyl N-[4-(3,4-difluorophenoxy)phenyl]carbamate] | 124
11 | 298 | > 14000 | 48 | 139 | 104 | >100 | CC(C)Oc1c(COC(=O)Nc2ccc(Oc3cccc(Cl)c3)cc2)ccc2c1C(=O)N(C1CCC(=O)NC1=O)C2 (centres unmarked) [Example 58, [2-(2,6-dioxopiperidin-3-yl)-3-oxo-4-(propan-2-yloxy)-2,3-dihydro-1H-isoindol-5-yl]methyl N-[4-(3-chlorophenoxy)phenyl]carbamate] | 109
12 | 55 | > 14000 | 6 | 148 | 108 | >95 | CC(C)Oc1c(COC(=O)Nc2ccc(Oc3cccc(F)c3F)cc2)ccc2c1C(=O)N(C1CCC(=O)NC1=O)C2 (centres unmarked) [Example 120, [2-(2,6-dioxopiperidin-3-yl)-3-oxo-4-(propan-2-yloxy)-2,3-dihydro-1H-isoindol-5-yl]methyl N-[4-(2,3-difluorophenoxy)phenyl]carbamate] | 121
13 | 83 | > 14000 | 32 | 78 | 108 | >180 | COc1c(COC(=O)Nc2ccc(Oc3ccccc3)cc2)ccc2c1C(=O)N(C1CCC(=O)NC1=O)C2 (centres unmarked) [Example 2, [2-(2,6-dioxopiperidin-3-yl)-4-methoxy-3-oxo-2,3-dihydro-1H-isoindol-5-yl]methyl N-(4-phenoxyphenyl)carbamate] | 123
14 | 30 | > 14000 | 11 | 45 | 110 | >308 | CN(C)C(=O)COc1c(COC(=O)Nc2ccc(Oc3ccc(F)c(F)c3)cc2)ccc2c1C(=O)N(C1CCC(=O)NC1=O)C2 (centres unmarked) [Example 175, {4-[(dimethylcarbamoyl)methoxy]-2-(2,6-dioxopiperidin-3-yl)-3-oxo-2,3-dihydro-1H-isoindol-5-yl}methyl N-[4-(3,4-difluorophenoxy)phenyl]carbamate] | 128
